The test system of one data set is Chikungunya virus. In words: Antiviral activity against CHIKV S27 infected in human Huh-7 cells at MOI of 0.25 incubated for 2 days and measured by ATPLite assay. Type of data set: functional, organism-based. The following applies: S27, Huh-7, 48 h. A general note: In ATP-based viability assays light output follows the ATP content of the culture.
In a further data set the test system is Hepatitis C virus. The data set is described as follows: Antiviral activity against HCV genotype 1b infected in human Huh7 cells incubated for 3 days and measured by luciferase reporter gene assay. Type of data set: functional, organism-based, Hepacivirus hominis. The settings on record: subtype 1b, Huh-7, 72 h. (In general: In a reporter assay the amount or activity of a reporter protein is the signal.)

In a further data set the test system is dengue virus type 2. In words: Antiviral activity against DENV2 16681 infected in human Huh-7 cells assessed as reduction in viral replication at MOI of 1 to 5 incubated for 3 days. It counts as functional, organism-based. The following applies: Dengue virus, 16681, Huh-7, 72 h.
Data set [1] in a line: Cytotoxicity against human Huh-7 cells measured after 2 days by ATPLite-based viability assay. Type of data set: toxicity, cell-based. The following applies: time 2 day.
Data set [2] can be described thus: Cmax in male C57BL/6 mouse at 50 mg/kg, sc measured by LC-MS/MS analysis. The arrangement: dose 50 mg/kg, route sc. The following applies: in vivo. It counts as ADME, organism-based.
Data set [3] can be described thus: Tmax in male C57BL/6 mouse at 50 mg/kg, po measured by LC-MS/MS analysis. It counts as ADME, organism-based. The following applies: in vivo.
The nature of data set [4]: Stability of compound in mouse plasma assessed as half-life incubated for 24 hrs and assessed as half-life at 1 uM by LC-MS/MS analysis. Type of data set: ADME, cell-free.
Data set [5] is described as follows: AUClast in male C57BL/6 mouse at 50 mg/kg, po measured by LC-MS/MS analysis. It counts as ADME, organism-based. The settings on record: in vivo.
The nature of data set [6]: Stability of compound in fasted state simulated intestinal fluid incubated for 6 hrs and assessed as half-life at 1 uM by LC-MS/MS analysis. Type of data set: ADME.
Data set [7] in a line: Tmax in male C57BL/6 mouse at 50 mg/kg, sc measured by LC-MS/MS analysis. Type of data set: ADME, organism-based. The following applies: in vivo.
The next data set has as its system Sindbis virus. The data set is described as follows: Antiviral activity against SINV AR339 infected in human Huh-7 cells measured by cytopathic effect inhibition assay. It counts as functional, organism-based. The settings on record: AR339, Huh-7. A general note: Cytopathic effects are the visible damage that an infection or toxin causes in cultured cells.
A short description of data set [8]: Stability of compound in simulated gastric fluid incubated for 6 hrs and assessed as half-life at 1 uM by LC-MS/MS analysis. It counts as ADME.
Data set [9] is described as follows: Tlast in male C57BL/6 mouse at 50 mg/kg, po measured by LC-MS/MS analysis. It counts as ADME, organism-based. The settings on record: in vivo.
A short description of data set [10]: AUClast in male C57BL/6 mouse at 50 mg/kg, sc measured by LC-MS/MS analysis. It counts as ADME, organism-based. The following applies: in vivo.
A short description of data set [11]: Metabolic stability in mouse liver microsomes preincubated for 5 mins followed by addition of NADPH and assessed as intrinsic clearance by LC-MS/MS analysis. The following applies: read-out: CLH. It counts as ADME, Microsome.
Data set [12] is described as follows: Stability of compound in human plasma assessed as half-life incubated for 24 hrs and assessed as half-life at 1 uM by LC-MS/MS analysis. It counts as ADME, cell-free.
The nature of data set [13]: Tlast in male C57BL/6 mouse at 50 mg/kg, sc measured by LC-MS/MS analysis. Type of data set: ADME, organism-based. The settings on record: in vivo.
The nature of data set [14]: Metabolic stability in human liver microsomes assessed as intrinsic clearance preincubated for 5 mins followed by addition of NADPH and assessed as intrinsic clearance by LC-MS/MS analysis. Type of data set: ADME, Microsome. The settings on record: read-out: CLH.
Data set [15] can be described thus: Cmax in male C57BL/6 mouse at 50 mg/kg, po measured by LC-MS/MS analysis. Type of data set: ADME, organism-based. Further details: dose 50 mg/kg, route po. The following applies: in vivo.
Data set [16] can be described thus: Stability of compound in simulated gastric fluid incubated for 6 hrs at 1 uM and assessed as compound remaining after 6 hrs by LC-MS/MS analysis. It counts as ADME. The settings on record: read-out: Stability.

Molecules are shown by their SMILES. Where only a bound is given, the exact number is not on record here.

One may read the EC50 as the midpoint of the concentration-response curve. Broadly, the CC50 is the concentration giving 50% cytotoxicity. `CC(C)OC(=O)[C@H](C)NP(=O)(OC[C@H]1O[C@@H](n2ccc(=O)[nH]c2=O)[C@@]2(CCO2)[C@@H]1O)Oc1ccccc1` (stereo partly specified): the results for the EC50 in the data set with Chikungunya virus, in the data set on Hepatitis C virus and in the data set on dengue virus type 2 were over 100 µM, 21.4 µM and over 50 µM, respectively. In addition, in [1], the half-maximal cytotoxic concentration (CC50) at 48 h was over 100 µM.

Regarding `CC(C)OC(=O)[C@H](C)NP(=O)(OC[C@H]1O[C@@H](n2ccc(=O)[nH]c2=O)[C@@]2(CCS2)[C@@H]1O)Oc1ccccc1` (stereo partly specified), the half-maximal effective concentration (EC50) in the data set with Chikungunya virus was 22.4 µM; in the data set with Hepatitis C virus, 1.17 µM; in the data set on dengue virus type 2 it was 26.1 µM. Besides, the CC50 at 48 h in data set [1] was over 100 µM.

For the molecule `CC(C)OC(=O)[C@H](C)NP(=O)(OC[C@@]1(F)O[C@@H](n2ccc(=O)[nH]c2=O)[C@@]2(CCO2)[C@@H]1O)Oc1ccccc1` (stereo partly specified), the concentration for a half-maximal effect (EC50) in the data set on Chikungunya virus, in the data set with Hepatitis C virus and in the data set with dengue virus type 2 was over 100 µM each time. The CC50 at 48 h in data set [1] was over 100 µM.

A word on the Tmax: it is the time from dosing to the highest level. For orientation: half-life means the time needed for the level to fall by half in the phase considered. With `CC(C)OC(=O)[C@H](C)NP(=O)(OC[C@@]1(F)O[C@@H](n2ccc(=O)[nH]c2=O)[C@@]2(CCS2)[C@@H]1O)Oc1ccccc1` (stereo partly specified), the Cmax in data set [2] is 2060 ng/mg; in data set [15], 637 ng/mg. For the same molecule, the time of peak concentration (Tmax) in data set [3] and in data set [7] was 2 h throughout. Besides, the half-life at 1 µM in data set [4] was under 0.4 h; in [6], 0.2 h; in data set [8] it was over 6 h; in [12], over 30 h. Further, the AUClast is 3050 ng·h/g in data set [5] and 10000 ng·h/g in [10]. Moreover, the 50% effective concentration (EC50) in the data set on Sindbis virus stood at 6.19 µM; in the data set on Chikungunya virus it was 3.25 µM; in the data set with Hepatitis C virus, 2.58 µM; in the data set with dengue virus type 2, 28.3 µM. For the same molecule, the Tlast in [9] and in data set [13] was 7 h each time. Further, the microsomal CLint in data set [11] and in data set [14] was over 347 µL/min/mg in each case. The molecule further registered a CC50 at 48 h in data set [1] of over 100 µM. Also, the remaining at 6 h, 1 µM in data set [16] was 93%.

For `CC(C)OC(=O)[C@H](C)N[P@@](=O)(OC[C@@]1(F)O[C@@H](n2ccc(=O)[nH]c2=O)[C@@]2(CCS2)[C@@H]1O)Oc1ccccc1`, the EC50 with Sindbis virus turned out to be 5.82 µM; in the data set on Chikungunya virus, 3.18 µM; in the data set with Hepatitis C virus, 2.2 µM; in the data set on dengue virus type 2, 29.3 µM. Moreover, in [1], the 50% cytotoxic concentration (CC50) at 48 h was over 100 µM.

As to `CC(C)OC(=O)[C@H](C)N[P@](=O)(OC[C@@]1(F)O[C@@H](n2ccc(=O)[nH]c2=O)[C@@]2(CCS2)[C@@H]1O)Oc1ccccc1`, the EC50 turned out to be 5.93 µM in the data set on Sindbis virus, 4.6 µM in the data set with Chikungunya virus, 2.1 µM in the data set on Hepatitis C virus and 42 µM in the data set with dengue virus type 2. Moreover, the 50% cytotoxic concentration (CC50) at 48 h in data set [1] is over 100 µM.

As to `CC(C)OC(=O)C(C)NP(=O)(OC[C@@]1(N=[N+]=[N-])O[C@@H](n2ccc(=O)[nH]c2=O)[C@@]2(CCS2)[C@@H]1O)Oc1ccccc1` (single isomer, unassigned), the values for the EC50 in the data set with Chikungunya virus, in the data set with Hepatitis C virus and in the data set on dengue virus type 2 were over 100 µM, 2.8 µM and over 100 µM, respectively. Besides, the CC50 at 48 h in [1] is over 100 µM.

Consider `CCCCOC(=O)C(C)NP(=O)(OC[C@@]1(F)O[C@@H](n2ccc(=O)[nH]c2=O)[C@@]2(CCS2)[C@@H]1O)Oc1ccccc1` (single isomer, unassigned), for which the EC50 with Sindbis virus is 4.64 µM; with Chikungunya virus, 2.87 µM; in the data set with Hepatitis C virus it was 1.92 µM; with dengue virus type 2 it was 29 µM. Further, the CC50 at 48 h in data set [1] is over 100 µM.
